Assay results published in patent US20230158036A1, “MEDICAMENT FOR THE TREATMENT OF PAIN” (Shionogi & Co., Ltd., priority 2020, published 2023).

Experiments:
[1] = test system: knee osteoarthritis patients; conditions: 300 mg twice daily oral, after 4 weeks; NPRS before administration 6.8; cited from earlier work
[2] = test system: patients of interstitial cystitis/bladder pain syndrome; conditions: twice daily oral, gradually increased from 50 mg to 300 mg, after 4 weeks; NPRS before administration 6.2; cited from earlier work
[3] = test system: mouse bone cancer pain model; assay: Drug efficacy in mouse bone cancer pain model (NCTC2472 cells in femur, von Frey; Test Example 10); format: in vivo; conditions: 10 mg/kg oral, two weeks after operation
Description: (Test Example 10) Assessment of Drug Efficacy in Mouse Bone Cancer Pain Model
Preparation of Mouse Bone Cancer Pain Model
The skin was incised under isoflurane anesthesia, the muscles were torn to expose the left femur, a hole was made in the bone marrow cavity using a 26 G needle, and tumor cells (NCTC2472 cells derived from C3H/HeN mice) were transplanted using a 30 G needle. The hole made in the femoral bone marrow cavity was closed with dental cement, and then the skin was sutured. Mice in sham-operated groups were prepared by administering HBSS instead of tumor cells.
Two weeks after the operation, the effect on tactile allodynia was assessed using von Frey filaments. Two weeks after the operation, for habituation, the mice were placed into a plastic cage on a wire mesh bottom. […] The pain threshold was evaluated for the operated hind limb and defined as a pre-administration pain threshold, and the compound represented by the formula (I) was administered to the animal at 10 mg/kg. […] Pain thresholds were measured for the operated hind limbs after the administration of the test substance, and these were used as post-administration pain thresholds. A percent reversal value for each rat was calculated using the following formula. […]

[4] = test system: partial sciatic nerve ligation model in rats; assay: Drug efficacy in Seltzer model (partial sciatic nerve ligation, von Frey tactile allodynia; Test Example 5); format: in vivo; conditions: rat, 10 mg/kg oral, 3 hours after administration, two weeks after operation
Description: (Test Example 5) Assessment of Drug Efficacy in Seltzer Model
Partial Sciatic Nerve Ligation Model in Rats
Each rat was anesthetized with isoflurane and the hair of the left thigh was shaved. An incision was made in the skin just below the hip bone. The muscle was bluntly dissected to expose the sciatic nerve. ⅓ to ½ of the sciatic nerve was strongly ligated with a thread, and the muscle and the skin were sutured. This is referred to as a nerve ligated side. The right thigh underwent an identical procedure with the left hind limb except for the ligation of the sciatic nerve. This is referred to as a sham operated side.
Two weeks after the operation, the effect on tactile allodynia was assessed using von Frey filaments. Two weeks after the operation, for habituation, the rats were placed into a plastic cage on a wire mesh bottom. […] Pain thresholds were measured for the left and right hind limbs and these were used as pre-treatment pain thresholds. […] Pain thresholds were measured for the right and left hind limbs at 3 hours after the drug administration, and these were used as post-treatment pain thresholds. A percent reversal value for each rat was calculated using the following formula. […]

[5] = test system: acetic acid-induced urination disorder model; assay: Drug efficacy in acetic acid-induced urination disorder model (Test Example 11); format: in vivo; conditions: rat, 3 mg/kg oral
Method: (Test Example 11) Assessment of Drug Efficacy in Acetic Acid-Induced Urination Disorder Model
Preparation of acetic acid-induced urination disorder model
A catheter was placed in a rat bladder under isoflurane anesthesia. After 2 days from the surgery for placing the catheter, 0.3% acetic acid was administered at 4 mL/hr over 30 minutes to induce cystitis. In this model, the amount of urine per urinating action and the voiding interval decreased.
On the day after acetic acid was administered, the amount of urine per urinating action and the voiding interval before drug administration were evaluated. The compound represented by Formula (I) was homogenized with mortar and pestle and suspended in 0.5% Methyl Cellulose to prepare a suspension, and it was orally administered at 0.1 mg/kg, 0.75 mg/kg, or 3 mg/kg to the rats using a syringe attached with a sonde. The amount of urine per urinating action and the voiding interval during a period from 30 minutes to 150 minutes after administration were measured. The value before administration for each individual was assumed to be 100%, and the change rate after administration was calculated.
Rate of change in amount of voided urine per urinating action=(amount of urine per urinating action after drug treatment of cystitis rat[…]amount of voided urine per urinating action before drug treatment of cystitis rat)×100
Rate of change in voiding interval=(voiding interval after drug treatment of cystitis rat[…]voiding interval before drug treatment of cystitis rat)×100

[6] = test system: rat knee osteoarthritis model; assay: Drug efficacy in knee osteoarthritis pain model (MIA, hind limb load distribution; Test Example 7); format: in vivo; conditions: 10 mg/kg oral, 3 hours after administration
Method: (Test Example 7) Assessment of Drug Efficacy in Knee Osteoarthritis Pain Model
Preparation of Rat Knee Osteoarthritis Model
Under isoflurane anesthesia, a knee joint on one side was shaved, and a monoiode sodium acetate (MIA) solution (saline solution, up to 5 mg/50 μL/rat) was intraarticularly administered.
Two weeks after the MIA administration, the analgesic effect of the compound represented by Formula (I) was evaluated. This test was based on a system for measuring a load distribution applied to hind limbs of a rat, and a ratio of load differences between left and right hind limbs was used as a pain threshold. On the day of the test, the pain threshold before the administration of the compound represented by Formula (I) was measured, and then after the administration of the test substance, the pain threshold was measured. […] Pain thresholds were measured for the hind limbs at 3 hours after the administration of the test substance, and these were used as post-administration pain thresholds. The load difference was measured up to three times, and the average value thereof was used as the pain threshold.
A percent reversal value for each rat was calculated using the following formula. […]

[7] = test system: rat inflammatory pain model; assay: Drug efficacy in inflammatory pain model (FCA, Randall-Selitto; Test Example 8); format: in vivo; conditions: 10 mg/kg oral, 1 hour after administration
Method: (Test Example 8) Assessment of Drug Efficacy in Inflammatory Pain Model
Preparation of Rat Inflammatory Pain Model
Under isoflurane anesthesia, FCA (12.5-100 μg) was subcutaneously injected into the hind limb of a rat to prepare an inflammatory pain model.
(§1) Two weeks after the administration of FCA, the analgesic effect of the compound represented by Formula (I) was evaluated by the Randall-Selitto method. […] On the day of the test, the pain threshold before the administration of the compound represented by Formula (I) was measured, and then after the administration of the test substance, the pain threshold was measured. The compound represented by Formula (I) was homogenized with mortar and pestle and suspended in 0.5% Methyl Cellulose to prepare a suspension, and it was orally administered at 10 mg/kg to the animals using a syringe attached with a sonde. Pain thresholds were measured for the hind limbs at 1 hour after the administration of the test substance, and these were used as post-administration pain thresholds. A percent reversal value for each rat was calculated using the following formula. The analgesic effects of the compound were compared.
% Reversal value=(post-administration pain threshold−pre-administration pain threshold)/(pain threshold of hind limb on FCA-non-administered side−pre-administration pain threshold)×100

rat P2X3 receptor = target: T1, rat P2X3 receptor (Rattus norvegicus, UniProt P49654); assay: Evaluation of rat P2X3 receptor inhibitory activity in the presence of rat serum albumin (Test Example 4); format: cell-based
T1 construct: expressed in transfected cells; host or cells: C6BU-1 cells (stably expressing line)
T1 sequence (P49654 1-397): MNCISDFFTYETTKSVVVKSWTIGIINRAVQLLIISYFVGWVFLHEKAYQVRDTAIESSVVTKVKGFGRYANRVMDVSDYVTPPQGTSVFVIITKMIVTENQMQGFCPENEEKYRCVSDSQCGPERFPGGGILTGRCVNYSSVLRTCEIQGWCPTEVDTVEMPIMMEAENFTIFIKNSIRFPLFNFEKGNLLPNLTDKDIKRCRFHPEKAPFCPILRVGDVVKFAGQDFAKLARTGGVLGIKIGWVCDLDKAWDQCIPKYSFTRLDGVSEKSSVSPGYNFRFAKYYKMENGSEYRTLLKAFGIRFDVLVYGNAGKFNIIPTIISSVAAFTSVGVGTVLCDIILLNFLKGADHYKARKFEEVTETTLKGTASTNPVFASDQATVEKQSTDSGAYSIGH
Description: (Test Example 4) Evaluation of Rat P2X3 Receptor Inhibitory Activity in the Presence of Rat Serum Albumin (RSA)

mouse bladder pain model = assay: Drug efficacy in cystitis pain model (cyclophosphamide, automatic von Frey; Test Example 9); format: in vivo; conditions: 3 mg/kg oral, 1 hour after administration
Method: (Test Example 9) Assessment of Drug Efficacy in Cystitis Pain Model
Preparation of Mouse Bladder Pain Model
Cyclophosphamide was dissolved in physiological saline or the like, and the solution was intraperitoneally administered to mice. Cyclophosphamide was administered at 150 mg/kg once daily consecutively for four days. As a control, mice to which saline was administered were also prepared.
The analgesic effect of the compound represented by Formula (I) was evaluated the day after the final administration of cyclophosphamide. In this test, mechanical stimulation by an automatic von Frey device was applied to the periphery of the lower abdomen while holding the mouse, and with respect to the resulting escape behavior defined as pain-like behavior, the pain threshold was determined. On the day of the test, the pain threshold before the administration (pre-administration pain threshold) of the compound represented by Formula (I) was measured, and then after the administration of the test substance, the pain threshold was measured. […] Pain thresholds were measured at 1 hour after the administration of the test substance, and these were used as post-administration pain thresholds. A percent reversal value for each rat was calculated using the following formula. […]

[8] = test system: rat diabetic neuropathic pain model; assay: Drug efficacy in diabetic neuropathic pain model (STZ, Randall-Selitto; Test Example 6); format: in vivo; conditions: 10 mg/kg oral, 3 hours after administration
Method: (Test Example 6) Assessment of Drug Efficacy in Diabetic Neuropathic Pain Model
Preparation of Rat Diabetic Neuropathic Pain Model
To overnight fasted rats, […] of streptozotocin (STZ) was intravenously administered to prepare a diabetes model. As a control, rats to which saline was administered were also prepared.
as §1, with “STZ,” for “FCA,”, “3 hours” for “1 hour”
% Reversal value=(post-administration pain threshold−pre-administration pain threshold)/(pain threshold of saline-administered rat−pre-administration pain threshold)×100

[9] = 30 to 150 minutes after administration, value before administration = 100%

SMILES | Numeric pain rating scale (NPRS) after administration [1] | Numeric pain rating scale (NPRS) after administration [2] | Percent reversal value (pain threshold, von Frey) [3] [%] | Percent reversal value (pain threshold, von Frey) [4] [%] | Rate of change in amount of voided urine per urinating action [5, 9] [%] | Rate of change in voiding interval [5, 9] [%] | Effect on voiding interval and amount of voided urine (FIGS. 1 and 2), in words ([5]; p<0.05 vs vehicle (Dunnett)) | Percent reversal value (load difference between left and right hind limbs) [6] [%] | Percent reversal value (pain threshold, Randall-Selitto) [7] [%] | IC50 (rat P2X3 receptor) [nM] | Percent reversal value (lower abdomen pain threshold, automatic von Frey) (mouse bladder pain model) [%] | Percent reversal value (pain threshold, Randall-Selitto) [8] [%]
COc1cc(C(C)C)c(Oc2cnc(N)nc2N)cc1S(N)(=O)=O [Gefapixant] | 4.9 | 3.3 |  |  |  |  |  |  |  |  |  | 
C[C@@H](Cn1c(=O)[nH]/c(=N\c2ccc(Oc3ccccn3)cc2)n(Cc2ccc(Cl)cc2)c1=O)C(=O)O [compound represented by Formula (I), (2S)-3-(3-[(4-chlorophenyl)methyl]-2,6-dioxo-4-([4-(pyridin-2-yloxy)phenyl]amino)-3,6-dihydro-1,3,5-triazin-1(2H)-yl)-2-methyl-propanoic acid] |  |  | 55 | 65 | 208.4 | 219.0 | significant improving effect | 51 | 58 | 10 | 46 | 55
